Assay results reported in patent publication US4016159A, “Acylamino-cephem-carboxylic acids containing an amidino or guanidino group in the molecule” (Hoechst Aktiengesellschaft, priority 1973, dated 1977).
In brackets after ≈: the same amount, converted by molar mass. Where a name gives a salt, the structure may show the parent alone.

Assays:
Format in all cases: cell-based
Streptococcus D = assay: Minimum inhibition concentration (MIC), Table 4; settings: Germ: Streptococcus D; for MIC: Streptococcus, read-out: Minimum inhibition concentration (MIC)
Text: (§1) Minimum inhibition concentration (MIC) in γ/ml

[1] = system: Staphylococcus aureus 285; assay: Minimum inhibition concentration (MIC), Table 1; settings: for MIC: Staphylococcus aureus, 285, Germ: Staphylococcus aureus 285, read-out: Minimum inhibition concentration (MIC)
Text: as §1
Germ: Staphylococcus aureus 285

[2] = system: Staphylococcus aureus SG 511; assay: Minimum inhibition concentration (MIC), Table 5; settings: for MIC: Staphylococcus aureus, SG511, Germ: Staphylococcus aureus SG 511, read-out: Minimum inhibition concentration (MIC)
Text: as §1
Germ: Staphylococcus aureus SG 511

Streptococcus pyogenes A = assay: Minimum inhibition concentration (MIC), Table 3; settings: Germ: Streptococcus pyogenes A; read-out: Minimum inhibition concentration MIC
Text: Minimum inhibition concentration MIC in γ/ml
Germ: Streptococcus pyogenes A

Row | SMILES | MIC (Streptococcus D) [µg/mL] | MIC [1] [µg/mL] | MIC [2] [µg/mL] | MIC (Streptococcus pyogenes A) [µg/mL] | Minimum inhibition concentration (MIC) (Streptococcus D) [µg/mL] | Minimum inhibition concentration (MIC) ([1]; Germ: Staphylococcus aureus 285) [µg/mL] | Minimum inhibition concentration (MIC) ([2]; Germ: Staphylococcus aureus SG 511, hydrochloride) [µg/mL]
1 | Cc1csc(SCC2=C(C(=O)O)N3C(=O)C(NC(=O)Cc4ccc(C(=N)N)cc4)C3SC2)n1 (centres unmarked) [Example 5, 3-[(4-methyl-thioazole-2-yl)-thiomethyl]-7-(4-amidinophenyl-acetamido)-Δ3-cephem-4-carboxylic acid] | 10 to 50 (≈ 19.9 to 99.3 µM) | 0.156 to 0.391 (≈ 0.31 to 0.776 µM) | 0.0625 to 0.078 (≈ 0.124 to 0.155 µM) |  |  |  | 
2 | N=C(N)Nc1ccc(CC(=O)NC2C(=O)N3C(C(=O)O)=C(CSc4nccs4)CSC23)cc1 (centres unmarked) [Example 8] | 10 to 50 (≈ 19.8 to 99.1 µM) | 0.5 to 1.25 (≈ 0.991 to 2.48 µM) | 0.0625 to 0.078 (≈ 0.124 to 0.155 µM) |  |  |  | 
3 | O=C(Cc1ccc(C2=NCCCN2)cc1)NC1C(=O)N2C(C(=O)O)=C(CSc3nc(-c4ccccc4)cs3)CSC12 (centres unmarked) [Example 14, 3-[(4-phenyl-thiazole-2-yl)-thiomethyl]-7-[4-(1,4,5,6-tetrahydropyrimide-2-yl)-phenylacetamido]-Δ 3-cephem-4-carboxylic acid] | 10 to 50 (≈ 16.5 to 82.5 µM) | 0.5 to 1.25 (≈ 0.825 to 2.06 µM) | 0.0625 to 0.078 (≈ 0.103 to 0.129 µM) | 0.008 to 0.0156 (≈ 0.0132 to 0.0258 µM) |  |  | 
4 | Cc1nnc(SCC2=C(C(=O)O)N3C(=O)C(NC(=O)Cc4ccc(C(=N)N)cc4)C3SC2)s1 (centres unmarked) [Example 26, 3-[(5-methyl-1,3,4-thiadiazole-2-yl)-thiomethyl]-7-(4-amidinophenylacetamido)-Δ 3-cephem-4-carboxylic acid] | 10 to 50 (≈ 19.8 to 99.1 µM) |  | 0.0625 to 0.078 (≈ 0.124 to 0.155 µM) |  |  |  | 
5 | N=C(N)c1ccc(OCC(=O)NC2C(=O)N3C(C(=O)O)=C(CSc4nc(-c5ccccc5)cs4)CSC23)cc1 (centres unmarked) [Example 27, 3-[(4-phenyl-1,3-thiazole-2-yl)-thiomethyl]-7-(4-amidinophenoxy-acetamido)-Δ 3-cephem-4-carboxylic acid] | 10 to 50 (≈ 17.2 to 86 µM) | 0.5 to 1.25 (≈ 0.86 to 2.15 µM) | 0.0625 to 0.078 (≈ 0.107 to 0.134 µM) | 0.000391 to 0.0078 (≈ 0.000672 to 0.0134 µM) |  |  | 
6 | N=C(N)c1ccc(OCC(=O)NC2C(=O)N3C(C(=O)O)=C(CSc4nnc(-c5ccccc5)o4)CSC23)cc1 (centres unmarked) [Example 28, 3-[(5-5-phenyl-1,3,4-oxadiazole-2-yl)-thiomethyl]-7-(4-amidino-phenoxyacetamido)-Δ 3-cephem-4-carboxylic acid] |  |  | 0.0196 to 0.0391 (≈ 0.0346 to 0.069 µM) | 0.000391 to 0.0078 (≈ 0.00069 to 0.0138 µM) | 10 to 50 | 0.156 to 0.391 | 
7 | N=C(N)c1ccc(OCC(=O)NC2C(=O)N3C(C(=O)O)=C(CSc4ccccn4)CSC23)cc1 (centres unmarked) [Example 29, 3-[(pyride-2-yl)-thiomethyl]-7-(4-amidinophenoxyacetamido)-Δ 3-cephem-4-carboxylic acid] | 10 to 50 (≈ 20 to 100 µM) | 0.5 to 1.25 (≈ 1 to 2.5 µM) | 0.0625 to 0.078 (≈ 0.125 to 0.156 µM) | 0.000391 to 0.0078 (≈ 0.000783 to 0.0156 µM) |  |  | 
8 | N=C(N)c1ccc(OCC(=O)NC2C(=O)N3C(C(=O)O)=C(CSc4nnnn4-c4ccccc4)CSC23)cc1 (centres unmarked) [Example 31, 3-[(1-phenyl-1-H-tetrazole-5yl)-thiomethyl]-7-(4-amidinophenoxyacetamido)-Δ3-cephem-4-carboxylic acid] | 10 to 50 (≈ 17.6 to 88.2 µM) | 0.156 to 0.391 (≈ 0.275 to 0.69 µM) | 0.0196 to 0.0391 (≈ 0.0346 to 0.069 µM) | 0.000391 to 0.0078 (≈ 0.00069 to 0.0138 µM) |  |  | 
9 | CCCCCCNC(=N)c1ccc(OCC(=O)NC2C(=O)N3C(C(=O)O)=C(CSc4nnc(C)o4)CSC23)cc1 (centres unmarked) [Example 32, 3-[(5-methyl-1,3,4-oxadiazole-2-yl)-thiomethyl]-7-[4-(N-n-hexylamidino)-phenoxyacetamido]-Δ 3-cephem-4-carboxylic acid] | 10 to 50 (≈ 17 to 84.9 µM) | 0.156 to 0.391 (≈ 0.265 to 0.664 µM) | 0.0625 to 0.078 (≈ 0.106 to 0.132 µM) | 0.000391 to 0.0078 (≈ 0.000664 to 0.0132 µM) |  |  | 
10 | CCCCCCNC(=N)c1ccc(OCC(=O)NC2C(=O)N3C(C(=O)O)=C(CSc4nnc(C)s4)CSC23)cc1 (centres unmarked) [Example 33, 3-[(5-methyl-1,3,4-thiadiazole-2-yl)-thiomethyl]-7-[4-(N-n-hexylamidion)-phenoxyacetamido]-Δ 3-cephem-4-carboxylic acid] | 0.196 to 6.25 (≈ 0.324 to 10.3 µM) | 0.156 to 0.391 (≈ 0.258 to 0.647 µM) | 0.0625 to 0.078 (≈ 0.103 to 0.129 µM) | 0.000391 to 0.0078 (≈ 0.000647 to 0.0129 µM) |  |  | 
11 | Cc1nnc(SCC2=C(C(=O)O)N3C(=O)C(NC(=O)COc4ccc(C5=NCCCN5)cc4)C3SC2)s1 (centres unmarked) [Example 34, 3-[(5-methyl-1,3,4-thiadizole-2-yl)-thiomethyl]-7-[4-(1,4,5,6-tetrahydropyromide-2-yl)-phenoxyacetamido]-Δ 3-cephem-4-carboxylic acid] | 0.196 to 6.25 (≈ 0.35 to 11.1 µM) | 0.5 to 1.25 (≈ 0.892 to 2.23 µM) | 0.0625 to 0.078 (≈ 0.111 to 0.139 µM) | 0.008 to 0.0156 (≈ 0.0143 to 0.0278 µM) |  |  | 
12 | Cc1nnc(SCC2=C(C(=O)O)N3C(=O)C(NC(=O)COc4ccc(C(=N)N)cc4)C3SC2)s1 (centres unmarked) [Example 35, 3-[(5-methyl-1,3,4-thiadiazole-2-yl)-thiomethyl]-7-[4-amidinophenoxy-acetamido]-Δ 3-cephem-4-carboxylic acid hydrochloride] | 10 to 50 |  |  | 0.000391 to 0.0078 |  |  | 0.0625 to 0.078
13 | Cc1nnc(SCC2=C(C(=O)O)N3C(=O)C(NC(=O)COc4ccc(C(=N)N)cc4)C3SC2)o1 (centres unmarked) [Example 38, 3-[(5-methyl-1,3,4-oxadiazole-2-yl)-thiomethyl]-7-(4-amidinophenoxy-acetamido)-Δ 3-cephem-4-carboxylic acid] | 10 to 50 (≈ 19.8 to 99.1 µM) | 0.156 to 0.391 (≈ 0.309 to 0.775 µM) | 0.0625 to 0.078 (≈ 0.124 to 0.155 µM) | 0.008 to 0.0156 (≈ 0.0159 to 0.0309 µM) |  |  | 
